Measured values reported in patent US5646185A, “Tumor treatment method” (priority 1993, dated 1997).

How the values were obtained:
[1] = tested on: A549 human adenocarcinoma cells; test: Survival (colony forming) assay of tumor cells under aerobic or hypoxic conditions with drug treatment; conditions: for aerobic cytotoxicity of the drug by itself: TPA 1 uM, PDA 1 uM, OAG 200 uM, thapsigargin 2 uM, compound 48/80 50 mg/ml, pentoxyfylline 1 mM; for effect on cell survival in normally oxygenated (aerated) cells: aerated A549 cells; for reduction of cell survival in hypoxic cells relative to the cell survival fraction with hypoxia alone: 20 hours of hypoxia (0.02% O2)
Procedure: A549 human adenocarcinoma cells were maintained in culture with alpha MEM containing 10% fetal calf serum. Cells were plated two days before hypoxia treatment in 60 mm glass (Corning) tissue culture dishes with notched sides at a density of 1×10^6 cells/dish. Hypoxia treatment of cells may be performed in any method known and available to those skilled in the art.
On the day of the hypoxia treatment, cells were re-fed with fresh media and incubated 4-6 hours before being exposed to hypoxia. The petri dishes were preferably then placed in specially designed aluminum hypoxia chambers that are prewarmed overnight at 37° C. The chambers were sealed and subjected to successive rounds of evacuation followed by flushing with 95% N2 /5% CO2 while slowly being agitated on a reciprocating shaker. The chambers were then placed in a 37° C. incubator and kept on a reciprocating shaker for the duration of the hypoxic treatment.
Oxygen concentration may be monitored with the use of a Clark-type electrode, such as commercially available from Controls Katharobic, Edmonton, Canada.
After hypoxic treatment, the seals to the chambers were broken, and the cells were washed with phosphate buffered saline, trypsinized, and then plated into tissue culture dishes to assay for colony forming ability.
All drugs were made from fresh stocks on the day of the treatment. In the combined drug and hypoxia treatments, the cells were pretreated for one hour with the drug before being exposed to hypoxia and then plated into tissue culture plates. Cells were then treated in accordance with several different methods: 1) exposure of the cells to thapsigargin for one hour prior to and continuous exposure for the duration of the hypoxia, and then plated for survival; 2) one hour exposure to the PKC activator drug in standard air followed by continuous exposure for the duration of hypoxia, and then plated for survival; 3) continuous exposure during hypoxia to TPA followed by immediate plating for survival; 4) 19 hour hypoxia treatment followed by one hour exposure to TPA in air or hypoxia using a Bactron II anaerobic chamber (Sheldon Labs, Cornelius, Oreg.), and then plating for survival; 5) continuous exposure during 19 hours of hypoxia with phospholipase inhibitors (compound 48/80 and pentoxyfylline), exposure to TPA for 1 hour in air, and then plating for survival.
TPA, PDA, staurosporine, compound 48/80, and pentoxyfylline are commercially available from Sigma Chemicals, St. Louis, Mo. Thapsigargin, herbimycin A, and genistein are commercially available from Gibco/BRL, Gaithersberg, Md.
After various experimental treatments, cells were plated into Nunc tissue culture plates at the appropriate concentrations in triplicate. The plates are placed in a 37° C. incubator and stained 10 days after the experiment with 1% crystal violet in 10% methanol. Viable colonies are defined as colonies with 50 or more cells.

PKC-epsilon = test: Western blot of PKC epsilon levels in hypoxic tumor cells; format: cell-based, human; conditions: for effect on PKC epsilon induction/activation by hypoxia and TPA: alone or in combination, FIG. 9
Procedure: Western blotting methods, as detailed in Example 2, were used to validate that the treatment method of the invention increases levels of PKC. […] Little accumulation is seen before 9 hours of hypoxic exposure.
Cells were lysed in a 50 mM phosphate buffer, sonicated with 4.5 second pulses of 75 W with cooling on ice between pulses, and followed by 3 rounds of freezing/thawing. Protein concentrations of each sample may be estimated using the bicinchoninic acid method. 200 μg of protein were loaded per lane. After running for 2 hours at 40 mA in a 7.5% polyacrylamide gel, the gel is transferred onto Hybond ECL, (Amersham, Arlington Heights, Ill.) for 2 hours with the use of a Bio-Rad semi-dry transfer system. After the transfer, the gel may be stained with 0.15% Coomassie blue to ensure uniform transfer. […] Preferably, the membrane is probed using the method described in Kim, et al., which is incorporated herein by reference, and autoradiographed utilizing enhanced chemiluminescence (ECL) according to the manufacturer's protocol (Amersham, Arlington Heights, Ill.).

protein kinase C (PKC) = test: Protein kinase C (PKC) activation assay; format: biochemical; conditions: approximate
Procedure: The EC50 is the concentration of compound that produces half-maximal stimulation of protein kinase C activity in a given assay.
Protein kinase C activation is measured in an assay that measures PKC phosphorylation activity using as substrate for PKC myelin basic protein. […] The reaction was initiated by an appropriate amount of crude cytosol extract. The phosphorylated product from 10 μl of reaction mixture was quantified using phospho-cellulose paper and washing method of Cook, et al. Background ^32 P incorporation in the absence of calcium and phosphatidyl serine/diolein and in the presence of 1 mM EGTA was subtracted from total incorporation in the complete PKC assay reaction mixture to determine the extent of PKC-dependent phosphorylation.
Suitable for use in this assay as a PKC source is either a crude extract, prepared as below, or, more preferably, purified PKC. Purified PKC is obtained from commercial sources.

[2] = tested on: A549 human adenocarcinoma cells; test: Pulsed-field gel electrophoresis of DNA degradation in hypoxia-treated cells; format: cell-based; conditions: added to hypoxia treated cells
Description: The mechanism of cell death by hypoxia appears to be necrosis rather than apoptosis. Using pulsed-field gel electrophoresis, a steady increase in DNA degradation as a function of time under hypoxia may be found. The methods followed those given in Example 2. The pattern of DNA degradation (not shown) is not one that is characteristic of apoptosis. The DNA was not fragmented into distinct nucleosome ladders, which is one of the hallmark characteristics of apoptosis; rather, it separated as a smear which is indicative of death by necrosis.
Pulsed-field gel electrophoresis may be performed in any manner known and available to those skilled in the art. One preferred method is described in Giaccia, 1992b, which is incorporated herein by reference. Briefly, fresh media was added to all of the treatment groups on the day of the treatment. After treatment, cells were washed with phosphate buffered saline (PBS), trypsinized, and resuspended in 1% agarose/PBS. The cells embedded in agarose were allowed to solidify in glass tubes and then cut into 5 mm plugs. The plugs were lysed in 0.5M EDTA, 1% sarkosyl, and 1 mg/ml proteinase K (Boehringer Mannheim, Indianapolis), and incubated at 50° C. for 16 hours in this lysis buffer.
After dialyzing the plugs against 25 volumes of 10 mM Tris and 1 mM EDTA for 4 hours, the plugs were then treated with 20 mg/ml RNase A for 3 hours at 37° C. […]

CCCCCCCC/C=C\CCCCCCCC(=O)OCC(CO)OC(C)=O (stereo not shown) [OAG, 2-acetyl-1-oleoylglycerol]
aerobic cytotoxicity of the drug by itself [1]: little or no aerobic cytotoxicity
effect on cell survival in normally oxygenated (aerated) cells ([1]; FIG. 3): none of the PKC activators had an appreciable effect on cell survival

CCCCCCCCCC(=O)O[C@@H]1[C@@H](C)[C@@]2(O)[C@@H](C=C(CO)C[C@@]3(O)C(=O)C(C)=C[C@@H]23)[C@@H]2C(C)(C)[C@]12OC(=O)CCCCCCCCC [PDA, 4α-phorbol-12-13-didecanoate]
aerobic cytotoxicity of the drug by itself [1]: little or no aerobic cytotoxicity
effect on cell survival (control phorbol ester) ([1]; aerobic and hypoxic A549 cells, FIG. 3): indistinguishable from no drug treatment
effect on steady state levels of PKC (PKC-epsilon; data not shown): has no effect

CCCCCCCCCCCCCC(=O)O[C@@H]1[C@@H](C)[C@@]2(O)[C@@H](C=C(CO)C[C@]3(O)C(=O)C(C)=C[C@@H]23)[C@@H]2C(C)(C)[C@]12OC(C)=O [TPA, 12-O-tetradecanoyl-phorbol-13-acetate]
selective killing of hypoxic versus aerobic cells ([1]; 1 μM, FIG. 3): selectively killed hypoxic, but not aerobic cells
reduction of cell survival in hypoxic cells relative to the cell survival fraction with hypoxia alone ([1]; FIG. 3): about 1,000 fold
aerobic cytotoxicity of the drug by itself [1]: little or no aerobic cytotoxicity
effect on cell survival in normally oxygenated (aerated) cells ([1]; FIG. 3): none of the PKC activators had an appreciable effect on cell survival
EC50 (protein kinase C (PKC)): ~1000 nM
increase in PKC levels over that of hypoxia alone (PKC-epsilon; one hour exposure following 19 hours of hypoxia, FIG. 7B, 60 min): 5 fold
DNA fragmentation over that found with hypoxia treatment alone [2]: does not increase DNA fragmentation

COC1C=CC=C(C)C(=O)NC2=CC(=O)C=C(C2=O)C(OC)C(C)CC(OC)C(OC)C(C)C=C(C)C1OC(N)=O (stereo not shown) [herbimycin A]
effect on PKC epsilon induction/activation by hypoxia and TPA (PKC-epsilon): has no effect on PKC induction

CC(=O)CCCCn1c(=O)c2c(ncn2C)n(C)c1=O [pentoxyfylline]
protection against TPA mediated hypoxic cell killing (increase in survival) ([1]; inhibitor during 19 hours of hypoxia, then TPA 1 hour, FIG. 8): 100 fold
effect on PKC epsilon induction/activation by hypoxia and TPA (PKC-epsilon): do not inhibit PKC activation

C/C=C(/C)C(=O)O[C@H]1C(C)=C2[C@H]([C@@H]1OC(=O)CCCCCCC)[C@@](C)(OC(C)=O)C[C@H](OC(=O)CCC)[C@@]1(O)[C@H]2OC(=O)[C@@]1(C)O [thapsigargin]
selective killing of hypoxic cells ([1]; 2 μM, FIG. 3): selectively killed hypoxic cells
reduction of cell survival in hypoxic cells relative to the cell survival fraction with hypoxia alone ([1]; FIG. 3): about 1,000 fold
aerobic cytotoxicity of the drug by itself [1]: little or no aerobic cytotoxicity
effect on cell survival in normally oxygenated (aerated) cells ([1]; FIG. 3): none of the PKC activators had an appreciable effect on cell survival
